pIC50: −log10 of the molar value.

The values that follow come from paper PMC12070378 (Microbial Biotechnology, 2025).

This experiment deals with T1, Sortase A (SrtA) (Staphylococcus aureus, UniProt Q2FV99).
T1 sequence (Q2FV99 60-206): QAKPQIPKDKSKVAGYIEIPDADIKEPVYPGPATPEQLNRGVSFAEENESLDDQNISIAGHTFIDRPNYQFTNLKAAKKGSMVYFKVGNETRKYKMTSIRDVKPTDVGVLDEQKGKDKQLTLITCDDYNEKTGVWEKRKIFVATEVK
Put plainly: FRET cleavage assay of Abz-LPATG-Dap. Format: biochemical.

As a reminder, the pIC50 is the IC50 on a negative log10 scale, so that one unit is a factor of ten. A lower pIC50 goes with a large IC50. For the molecule `CC(=O)/C=C/c1ccc(O)c(O)c1` [OSC, osmundacetone], the pIC50 is 5.14.
